Reference: patent US9302988B2, “Fluoromethyl-substituted pyrrole carboxamides” (GRÜNENTHAL GMBH, priority 2012, dated 2016)

What follows are compounds tested against T1, Human CaV2.2 channels (Homo sapiens, UniProt Q00975) (assay: Fluorescent assay for CaV2.2 channels using potassium depolarization to induce channel opening (FLIPR, Fluo-4)). Settings: 3 μM test compound, 30 mM KCl, HEK293 cells stably expressing human CaV2.2; read-out: %-Inhib (CaV2.2) @3 μM @30 mM KCl.
T1 construct: expressed in transfected cells
Assay type: cell-based
Summary of the method: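 HEK293 cells stably co-expressing CaV2.2 with α2δ and β subunits plus Kir2.3 were Fluo-4 loaded, then preincubated 15 min at 25 °C with compound in 30 mM KCl buffer, pH 7.4. Depolarization was by adding buffer containing 210 mM KCl. Inhibition was taken from baseline-normalized peak fluorescence amplitude (ex 480/em 535 nm).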

T1 sequence (Q00975 whole entry): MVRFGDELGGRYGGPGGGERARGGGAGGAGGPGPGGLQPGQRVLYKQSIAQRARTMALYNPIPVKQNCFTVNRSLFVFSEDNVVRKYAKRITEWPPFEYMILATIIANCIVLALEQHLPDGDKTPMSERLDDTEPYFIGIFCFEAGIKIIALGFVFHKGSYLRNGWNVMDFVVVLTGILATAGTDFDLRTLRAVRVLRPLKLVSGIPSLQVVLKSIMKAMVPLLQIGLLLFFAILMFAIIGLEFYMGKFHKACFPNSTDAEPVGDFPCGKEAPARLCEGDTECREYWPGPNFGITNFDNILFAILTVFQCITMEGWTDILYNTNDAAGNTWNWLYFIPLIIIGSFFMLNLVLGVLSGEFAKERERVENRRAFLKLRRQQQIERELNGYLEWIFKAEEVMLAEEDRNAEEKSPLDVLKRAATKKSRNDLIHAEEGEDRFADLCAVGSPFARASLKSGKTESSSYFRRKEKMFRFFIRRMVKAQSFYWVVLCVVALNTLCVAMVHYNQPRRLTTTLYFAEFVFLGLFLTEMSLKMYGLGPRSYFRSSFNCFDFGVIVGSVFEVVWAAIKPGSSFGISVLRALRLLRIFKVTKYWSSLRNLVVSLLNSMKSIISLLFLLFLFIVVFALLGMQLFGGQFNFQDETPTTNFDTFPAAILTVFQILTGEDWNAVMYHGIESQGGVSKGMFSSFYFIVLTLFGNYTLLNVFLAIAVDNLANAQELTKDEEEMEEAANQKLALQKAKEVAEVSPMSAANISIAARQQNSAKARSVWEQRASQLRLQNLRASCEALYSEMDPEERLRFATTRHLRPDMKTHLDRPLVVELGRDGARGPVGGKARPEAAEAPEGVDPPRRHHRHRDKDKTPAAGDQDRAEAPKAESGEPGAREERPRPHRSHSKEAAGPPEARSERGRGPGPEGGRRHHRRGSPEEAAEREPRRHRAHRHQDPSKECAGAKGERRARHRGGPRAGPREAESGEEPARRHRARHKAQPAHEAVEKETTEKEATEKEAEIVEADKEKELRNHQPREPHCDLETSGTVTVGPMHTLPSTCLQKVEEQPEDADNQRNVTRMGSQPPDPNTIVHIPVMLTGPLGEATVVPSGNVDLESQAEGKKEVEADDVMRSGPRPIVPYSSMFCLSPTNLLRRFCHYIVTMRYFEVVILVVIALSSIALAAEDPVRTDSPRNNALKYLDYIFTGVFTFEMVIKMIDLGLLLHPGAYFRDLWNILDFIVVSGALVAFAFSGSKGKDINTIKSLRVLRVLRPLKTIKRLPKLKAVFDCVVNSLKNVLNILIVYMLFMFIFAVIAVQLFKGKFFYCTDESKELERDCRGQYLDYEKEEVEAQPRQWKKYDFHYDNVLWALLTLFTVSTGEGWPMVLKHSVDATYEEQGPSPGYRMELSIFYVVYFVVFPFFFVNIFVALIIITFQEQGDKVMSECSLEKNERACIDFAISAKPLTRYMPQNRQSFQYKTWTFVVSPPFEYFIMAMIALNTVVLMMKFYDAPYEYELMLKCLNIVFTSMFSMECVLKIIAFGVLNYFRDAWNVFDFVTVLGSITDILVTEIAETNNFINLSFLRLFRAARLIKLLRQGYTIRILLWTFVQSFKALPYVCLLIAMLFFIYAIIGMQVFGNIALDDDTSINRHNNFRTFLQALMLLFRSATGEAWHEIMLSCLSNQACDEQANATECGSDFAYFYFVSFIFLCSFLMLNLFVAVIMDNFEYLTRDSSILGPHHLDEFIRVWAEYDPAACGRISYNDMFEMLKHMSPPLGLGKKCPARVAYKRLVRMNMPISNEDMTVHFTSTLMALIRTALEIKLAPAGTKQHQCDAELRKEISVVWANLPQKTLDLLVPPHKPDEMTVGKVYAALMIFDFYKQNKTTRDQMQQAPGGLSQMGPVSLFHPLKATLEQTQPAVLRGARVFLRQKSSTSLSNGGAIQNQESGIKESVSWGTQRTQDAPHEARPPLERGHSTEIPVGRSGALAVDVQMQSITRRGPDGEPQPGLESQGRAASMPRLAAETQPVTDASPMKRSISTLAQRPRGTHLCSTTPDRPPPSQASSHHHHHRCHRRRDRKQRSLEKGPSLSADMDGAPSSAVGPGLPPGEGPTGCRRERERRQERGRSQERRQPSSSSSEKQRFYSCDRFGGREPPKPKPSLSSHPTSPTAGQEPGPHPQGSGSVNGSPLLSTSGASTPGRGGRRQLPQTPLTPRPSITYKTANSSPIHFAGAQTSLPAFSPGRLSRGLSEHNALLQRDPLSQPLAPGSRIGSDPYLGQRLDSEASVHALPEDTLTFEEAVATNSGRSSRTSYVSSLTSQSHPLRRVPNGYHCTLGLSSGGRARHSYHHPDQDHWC
T1 sequence (P54289 25-1103, further chain): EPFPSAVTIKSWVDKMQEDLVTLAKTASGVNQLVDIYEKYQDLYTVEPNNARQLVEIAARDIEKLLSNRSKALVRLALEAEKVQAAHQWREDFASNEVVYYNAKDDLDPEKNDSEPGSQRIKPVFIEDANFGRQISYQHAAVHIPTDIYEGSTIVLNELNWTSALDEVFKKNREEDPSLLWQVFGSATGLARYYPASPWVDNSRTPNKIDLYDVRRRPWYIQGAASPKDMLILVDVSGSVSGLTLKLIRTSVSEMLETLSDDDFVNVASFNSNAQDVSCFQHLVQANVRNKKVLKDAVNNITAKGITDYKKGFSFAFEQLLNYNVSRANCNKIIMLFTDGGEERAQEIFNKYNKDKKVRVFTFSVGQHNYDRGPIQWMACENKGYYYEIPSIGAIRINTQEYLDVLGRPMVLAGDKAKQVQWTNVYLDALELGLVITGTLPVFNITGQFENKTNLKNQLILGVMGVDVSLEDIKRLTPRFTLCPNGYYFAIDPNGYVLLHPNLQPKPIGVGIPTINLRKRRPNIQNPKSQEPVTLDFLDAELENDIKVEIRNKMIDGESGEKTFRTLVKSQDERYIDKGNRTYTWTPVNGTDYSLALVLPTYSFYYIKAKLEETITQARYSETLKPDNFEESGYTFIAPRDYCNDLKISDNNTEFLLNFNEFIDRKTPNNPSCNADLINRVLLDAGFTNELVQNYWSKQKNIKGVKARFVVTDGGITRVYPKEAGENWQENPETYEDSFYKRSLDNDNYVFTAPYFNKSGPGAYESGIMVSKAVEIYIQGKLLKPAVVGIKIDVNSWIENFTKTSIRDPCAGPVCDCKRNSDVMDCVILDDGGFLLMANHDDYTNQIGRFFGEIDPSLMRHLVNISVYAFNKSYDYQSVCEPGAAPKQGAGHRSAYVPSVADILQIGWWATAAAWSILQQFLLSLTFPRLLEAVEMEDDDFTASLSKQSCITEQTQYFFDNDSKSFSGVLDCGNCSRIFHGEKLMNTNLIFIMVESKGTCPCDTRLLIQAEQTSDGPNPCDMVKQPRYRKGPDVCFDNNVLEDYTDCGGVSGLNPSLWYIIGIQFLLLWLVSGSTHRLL
T1 sequence (P54284 whole entry, further chain): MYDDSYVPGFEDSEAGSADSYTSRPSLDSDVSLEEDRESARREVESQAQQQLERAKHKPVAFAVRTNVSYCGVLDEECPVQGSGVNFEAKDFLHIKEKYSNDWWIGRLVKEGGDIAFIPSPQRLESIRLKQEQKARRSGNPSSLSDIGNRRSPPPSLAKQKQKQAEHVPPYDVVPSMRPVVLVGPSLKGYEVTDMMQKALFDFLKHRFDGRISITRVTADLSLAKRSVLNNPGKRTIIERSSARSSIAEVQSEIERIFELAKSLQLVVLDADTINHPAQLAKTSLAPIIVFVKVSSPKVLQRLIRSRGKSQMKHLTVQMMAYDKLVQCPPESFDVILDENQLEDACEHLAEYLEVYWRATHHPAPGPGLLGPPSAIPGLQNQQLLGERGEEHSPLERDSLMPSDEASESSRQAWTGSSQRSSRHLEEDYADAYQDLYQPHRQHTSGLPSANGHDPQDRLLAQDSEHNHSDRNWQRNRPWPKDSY

Compound	inhibition at 3 µM
Cc1c(-c2ccc(F)c(Cl)c2)c(C(=O)N(C)CCS(C)(=O)=O)n(Cc2ccccc2)c1C(F)(F)F [SC-252, 1-Benzyl-3-(3-chloro-4-fluoro-phenyl)-N,4-dimethyl-N-(2-methylsulfonyl-ethyl)-5-(trifluoromethyl)-1H-pyrrole-2-carboxylic acid amide]	> 95%
Cc1c(-c2ccc(F)c(Cl)c2)c(C(=O)N(C)C2CCOCC2)n(Cc2ccccc2)c1C(F)(F)F [SC-253, 1-Benzyl-3-(3-chloro-4-fluoro-phenyl)-N,4-dimethyl-N-tetrahydro-pyran-4-yl-5-(trifluoromethyl)-1H-pyrrole-2-carboxylic acid amide]	> 95%
Cc1c(-c2ccc(F)c(Cl)c2)c(C(=O)N(C)C2CC2)n(Cc2ccccc2)c1C(F)(F)F [SC-254, 1-Benzyl-3-(3-chloro-4-fluoro-phenyl)-N-cyclopropyl-N,4-dimethyl-5-(trifluoromethyl)-1H-pyrrole-2-carboxylic acid amide]	75 to 95%
Cc1c(-c2ccc(F)c(Cl)c2)c(C(=O)N2CC(O)C2)n(Cc2ccccc2)c1C(F)(F)F [SC-255, [1-Benzyl-3-(3-chloro-4-fluoro-phenyl)-4-methyl-5-(trifluoromethyl)-1H-pyrrol-2-yl]-(3-hydroxy-azetidin-1-yl)-methanone]	40 to 75%
Cc1c(-c2ccc(F)c(Cl)c2)c(C(=O)N(C)CC(C)(C)C)n(Cc2ccccc2)c1C(F)(F)F [SC-256, 1-Benzyl-3-(3-chloro-4-fluoro-phenyl)-N-(2,2-dimethyl-propyl)-N,4-dimethyl-5-(trifluoromethyl)-1H-pyrrole-2-carboxylic acid amide]	30 to 40%
Cc1c(-c2ccc(F)c(Cl)c2)c(C(=O)N(C)C(C)(C)CO)n(Cc2ccccc2)c1C(F)(F)F [SC-257, 1-Benzyl-3-(3-chloro-4-fluoro-phenyl)-N-(2-hydroxy-1,1-dimethyl-ethyl)-N,4-dimethyl-5-(trifluoromethyl)-1H-pyrrole-2-carboxylic acid amide]	75 to 95%
Cc1c(-c2ccc(F)c(Cl)c2)c(C(=O)N2CCOC(C)(C)C2)n(Cc2ccccc2)c1C(F)(F)F [SC-258, [1-Benzyl-3-(3-chloro-4-fluoro-phenyl)-4-methyl-5-(trifluoromethyl)-1H-pyrrol-2-yl]-(2,2-dimethyl-morpholin-4-yl)-methanone]	75 to 95%
CN(CC(C)(C)C)C(=O)c1c(-c2ccc(Cl)cc2)c(S(C)(=O)=O)c(C(F)(F)F)n1Cc1ccccc1 [SC-259, 1-Benzyl-3-(4-chlorophenyl)-N-(2,2-dimethyl-propyl)-N-methyl-4-methylsulfonyl-5-(trifluoromethyl)-1H-pyrrole-2-carboxylic acid amide]	75 to 95%
Cc1c(-c2ccc(OCC(F)(F)F)cc2)c(C(=O)N(C)CC(C)(C)C)n(Cc2ccccc2)c1C(F)(F)F [SC-260, 1-Benzyl-N,4-dimethyl-N-neopentyl-3-(4-(2,2,2-trifluoroethoxy)phenyl)-5-(trifluoromethyl)-1H-pyrrole-2-carboxamide]	40 to 75%
CN(CC(C)(C)C)C(=O)c1c(-c2ccc(Cl)cc2)cc(C(F)(F)F)n1Cc1ccc(F)cc1 [SC-261, 3-(4-Chlorophenyl)-N-(2,2-dimethyl-propyl)-1-[(4-fluorophenyl)-methyl]-N-methyl-5-(trifluoromethyl)-1H-pyrrole-2-carboxylic acid amide]	75 to 95%
Cc1c(-c2ccc(OC(F)(F)F)cc2F)c(C(=O)N2CCOCC2)n(Cc2ccccc2)c1C(F)(F)F [SC-262, (1-benzyl-3-(2-fluoro-4-(trifluoromethoxy)phenyl)-4-methyl-5-(trifluoromethyl)-1H-pyrrol-2-yl)(morpholino)methanone]	75 to 95%
Cc1c(-c2ccc(OCC(F)(F)F)cc2)c(C(=O)N2CCOCC2)n(Cc2ccccc2)c1C(F)(F)F [SC-263, [1-Benzyl-4-methyl-3-[4-(2,2,2-trifluoro-ethoxy)-phenyl]-5-(trifluoromethyl)-1H-pyrrol-2-yl]-morpholin-4-yl-methanone]	75 to 95%
Cc1c(-c2ccc(C#N)cc2F)c(C(=O)N2CCOCC2)n(Cc2ccccc2)c1C(F)(F)F [SC-264, 4-[1-Benzyl-4-methyl-2-(morpholine-4-carbonyl)-5-(trifluoromethyl)-1H-pyrrol-3-yl]-3-fluoro-benzonitrile]	75 to 95%
CN(CC(C)(C)C)C(=O)c1c(-c2ccc(Cl)cc2)cc(C(F)(F)F)n1Cc1cccc(S(C)(=O)=O)c1 [SC-266, 3-(4-Chlorophenyl)-N-(2,2-dimethyl-propyl)-N-methyl-1-[(3-methylsulfonyl-phenyl)-methyl]-5-(trifluoromethyl)-1H-pyrrole-2-carboxylic acid amide]	75 to 95%
